Data: article PMC10333360, “Establishing mammalian GLUT kinetics and lipid composition influences in a reconstituted-liposome system” (Nature Communications, 2023)

How the values were obtained:
[1] = target: T1, rGLUT5 (Rattus norvegicus, UniProt P43427); test: inhibition of […]-D-fructose uptake by purified rGLUT5 in brain-fraction-seven proteoliposomes; type: biochemical
T1 construct: gene Slc2a5
T1 sequence (P43427 1-502): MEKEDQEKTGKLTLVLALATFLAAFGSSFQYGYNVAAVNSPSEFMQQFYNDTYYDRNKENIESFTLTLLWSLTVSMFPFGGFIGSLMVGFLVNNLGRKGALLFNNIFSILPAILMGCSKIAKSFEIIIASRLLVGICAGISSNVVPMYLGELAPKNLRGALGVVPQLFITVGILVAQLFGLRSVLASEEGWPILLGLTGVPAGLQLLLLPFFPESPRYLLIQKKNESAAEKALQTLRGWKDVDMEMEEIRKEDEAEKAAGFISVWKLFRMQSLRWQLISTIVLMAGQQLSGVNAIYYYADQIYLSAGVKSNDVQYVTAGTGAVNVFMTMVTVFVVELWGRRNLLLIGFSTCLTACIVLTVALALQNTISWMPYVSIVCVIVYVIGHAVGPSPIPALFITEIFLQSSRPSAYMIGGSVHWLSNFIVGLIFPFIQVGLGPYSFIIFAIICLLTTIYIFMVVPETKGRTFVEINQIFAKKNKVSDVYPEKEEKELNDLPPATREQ

[2] = target: T1, rGLUT5; test: competitive […]-D-fructose uptake in proteoliposomes, […] compound, […] reduction; type: biochemical

Cc1ccc(NC(=O)Oc2ccc(C)cc2)cc1 [H4, 4-methylphenyl-N-(4-methylphenyl)-carbamate]
IC50 [1]: 500 µM

Cc1ccc(NC(=O)Oc2ccccc2)cc1 [C2, phenyl-n-(p-tolyl)-carbamate]
% reduction [2]: 20 % reduction
